Measurements as given in ChEMBL document CHEMBL5260833, “An overview of quinazolines: Pharmacological significance and recent developments” (Eur J Med Chem, 2018).
In brackets after ≈: the same amount, converted by molar mass.

What was measured:
[1] = Cytotoxicity against human CEM/ADR5000 cells assessed as reduction in cell growth; format: toxicity, cell-based
Cytomegalovirus = assay: Antiviral activity against Cytomegalovirus; conditions: Human betaherpesvirus 5
K562 [2] = assay: Anticancer activity against human K562 cells assessed as cell growth inhibition; format: functional, cell-based
Oryctolagus cuniculus = organism: Oryctolagus cuniculus; assay: Antihypertensive activity in rabbit aorta assessed as vasodilation; format: functional
Mus musculus [3] = assay: Analgesic activity in […] albino mouse at 20 mg/kg, po measured after 2 hrs by Tail-Flick technique relative to control; format: functional
Mus musculus [4] = assay: Analgesic activity in mouse at 100 mg/kg, ip measured after 30 mins relative to control; format: functional; conditions: 0.5 h
[5] = molecular target: Prostaglandin G/H synthase 2 (Homo sapiens) (UniProt P35354); assay: Inhibition of COXII (unknown origin) relative to control; conditions: concentration not given here
Chain of Prostaglandin G/H synthase 2 (Homo sapiens) (P35354 whole entry): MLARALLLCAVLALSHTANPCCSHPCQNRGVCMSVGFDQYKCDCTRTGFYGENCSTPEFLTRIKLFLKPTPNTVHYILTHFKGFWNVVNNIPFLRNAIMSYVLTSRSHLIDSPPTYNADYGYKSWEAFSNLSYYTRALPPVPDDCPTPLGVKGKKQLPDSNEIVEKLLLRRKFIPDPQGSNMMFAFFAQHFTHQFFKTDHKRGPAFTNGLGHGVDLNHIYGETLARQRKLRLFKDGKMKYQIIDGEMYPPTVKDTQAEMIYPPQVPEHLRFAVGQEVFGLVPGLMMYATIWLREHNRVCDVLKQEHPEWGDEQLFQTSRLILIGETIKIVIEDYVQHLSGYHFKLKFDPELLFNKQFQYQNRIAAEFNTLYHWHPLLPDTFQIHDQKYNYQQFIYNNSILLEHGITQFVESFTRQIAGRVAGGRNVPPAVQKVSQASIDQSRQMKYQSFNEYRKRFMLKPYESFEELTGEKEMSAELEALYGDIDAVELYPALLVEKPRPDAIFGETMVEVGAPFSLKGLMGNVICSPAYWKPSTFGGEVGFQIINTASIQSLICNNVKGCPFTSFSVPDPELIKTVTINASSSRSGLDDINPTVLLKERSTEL

Plasmodium falciparum = assay: Antimalarial activity against plasmodium falciparum 3D7 assessed as bacterial growth inhibition; format: functional, organism-based
Tubulin = assay: Inhibition of tubulin polymerization (unknown origin) incubated for 15 mins followed by GTP addition and measured for 20 mins by spectrophotometry; format: protein-complex assay, Homo sapiens
MCF7 [6] = assay: Anticancer activity against human MCF7 cell assessed as cell growth inhibition measured after 48 hrs by SRB assay; format: functional, cell-based; conditions: MCF7, 48 h
CA46 = assay: Cell cycle arrest in human CA46 cells assessed as reduction in G2/M phase at 10 uM incubated for 24 hrs relative to control; format: functional
MCF7 [7] = assay: Cell cycle arrest in human MCF7 cells assessed as reduction in G2/M phase at 10 uM G2/M phase incubated for 24 hrs relative to control; format: functional
UO-31 = assay: Anticancer activity against human UO-31 cell assessed as cell growth inhibition measured after 24 hrs by SRB assay; format: functional
RXF 393 = assay: Anticancer activity against human RXF 393 cell assessed as cell growth inhibition measured after 24 hrs by SRB assay; format: functional
[8] = Anticancer activity against human CNS cell assessed as cell growth inhibition measured after 24 hrs by SRB assay; format: functional
SR = assay: Anticancer activity against human SR cell assessed as cell growth inhibition measured after 24 hrs by SRB assay; format: functional
K562 [9] = assay: Anticancer activity against human K562 cell assessed as cell growth inhibition measured after 24 hrs by SRB assay; format: functional
MOLT-4 = assay: Anticancer activity against human MOLT-4 cell assessed as cell growth inhibition measured after 24 hrs by SRB assay; format: functional
A549 = assay: Anticancer activity against human A549 cell assessed as cell growth inhibition measured after 24 hrs by SRB assay; format: functional
[10] = molecular target: 5-hydroxytryptamine receptor 2A (Homo sapiens, UniProt P28223); assay: Inhibition of 5-HT2A (unknown origin) assessed as inhibition constant
Chain of 5-hydroxytryptamine receptor 2A (P28223 whole entry): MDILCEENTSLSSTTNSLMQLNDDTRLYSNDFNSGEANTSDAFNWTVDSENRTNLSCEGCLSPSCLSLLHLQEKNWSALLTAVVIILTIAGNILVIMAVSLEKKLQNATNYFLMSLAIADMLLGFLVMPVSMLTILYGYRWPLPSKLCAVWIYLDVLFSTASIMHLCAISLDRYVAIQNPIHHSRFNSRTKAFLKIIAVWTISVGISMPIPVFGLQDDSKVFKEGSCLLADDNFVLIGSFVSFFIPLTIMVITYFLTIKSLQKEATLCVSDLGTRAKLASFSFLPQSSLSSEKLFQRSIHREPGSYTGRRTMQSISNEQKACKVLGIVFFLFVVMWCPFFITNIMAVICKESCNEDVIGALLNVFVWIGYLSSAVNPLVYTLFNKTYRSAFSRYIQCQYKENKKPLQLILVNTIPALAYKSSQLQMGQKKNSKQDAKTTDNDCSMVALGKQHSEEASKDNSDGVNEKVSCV

Rattus norvegicus [11] = assay: Inhibition of AII-induced pressor response in normotensive conscious rat administered orally; format: functional; conditions: route po
Rattus norvegicus [12] = assay: Inhibition of AII-induced pressor response in normotensive conscious rat administered intravenously; format: functional; conditions: route iv
Mus musculus [13] = assay: Anticonvulsant activity in mouse at 100 mg/kg, po measured after 30 mins relative to control; format: functional; conditions: 0.5 h
Mus musculus [14] = assay: Sedative activity in mouse assessed as sleeping time at 100 mg/kg, ip; format: functional
Mus musculus [15] = assay: Sedative activity in mouse assessed as sleeping time at 30 mg/kg, ip; format: functional
[16] = test system: Human immunodeficiency virus 1; assay: Antiviral activity against HIV1; format: functional, organism-based
[17] = test system: Human immunodeficiency virus 1; assay: Therapeutic index, ratio of IC50 for antiviral activity against HIV1 to EC50 for antiviral activity against HIV1; format: functional
Rattus norvegicus [18] = assay: Inhibition of AII-induced hypertension in rat assessed as vasoconstrictor at 3 mg/kg, po measured after 2 hrs; format: functional
Vaccinia virus [19] = assay: Antiviral activity against Vaccinia virus infected in human MT4 cells measured after 5 days by MTT assay; format: functional, organism-based; conditions: Orthopoxvirus vaccinia, MT4, 120 h
Vaccinia virus [20] = assay: Antiviral activity against Vaccinia virus infected in human E6SM cells; format: functional; conditions: Orthopoxvirus vaccinia
Mus musculus [21] = assay: Analgesic activity in phenylbenzoquinone induced mouse assessed as reduction in writhing at 10 mg/kg, po measured after 1 hrs by writhing test relative to control; format: functional
Mus musculus [22] = assay: Analgesic activity in acetic acid peritonitis induced mouse assessed as reduction in writhing at 10 mg/kg, po measured after 1 hrs by writhing test relative to control; format: functional
Rattus norvegicus [23] = assay: Antiinflammatory activity in rat at assessed as reduction in paw edema relative to control; format: functional
Mus musculus [24] = assay: Anticonvulsant activity in mouse at 100 mg/kg, ip by MES test relative to control; format: functional
Mus musculus [25] = assay: Anticonvulsant activity in PTZ induced mouse at 100 mg/kg, ip relative to control; format: functional
Ovarian carcinoma cell = assay: Anticancer activity against human Ovarian carcinoma cell assessed as cell growth inhibition; format: functional; conditions: read-out: ED50 (the source's name)
[26] = Anticancer activity against human Epidermoid carcinoma cell line assessed as cell growth inhibition; format: functional; conditions: read-out: ED50 (the source's name)

Q: With C[C@H]1[C@H](OC(=O)CCC(=O)O)O[C@@H]2O[C@@]3(C)CC[C@H]4[C@H](C)CC[C@@H]1[C@@]24OO3 [ARTESUNATE] as the molecule, how does the EC50 [1] read?
A: 500 nM

Q: For Nc1nc2c(ncn2COC(CO)CO)c(=O)[nH]1 [GANCICLOVIR], which EC50 (Cytomegalovirus) is on record?
A: 2600 nM

Q: For CCN(CC)C(=S)SCc1ccc2nc(C)nc(O)c2c1, which IC50 (K562 [2]) is on record?
A: 500 nM

Q: Which pD2 (Oryctolagus cuniculus) does the source give for CC(=O)OC1C([N+](=O)[O-])c2ccccc2C(=O)N1[N+](=O)[O-] (stereo not given) here?
A: 5.36

Q: What does the source list for COc1ccccc1C1SCC(=O)N1NCC(=O)Cc1nc2ccccc2c(=O)n1-c1c(C)[nH]c2ccccc12 (stereo not given)?
A: Activity (Mus musculus [3]): 80%; Activity (Mus musculus [4]): 80%; inhibition [5]: 90%

Q: Which EC50 (Plasmodium falciparum) does the source give for C[C@@H]1CC[C@H]2[C@@H](C)C(=O)O[C@@H]3O[C@@]4(C)CC[C@@H]1[C@]32OO4 [ARTEMISININ] here?
A: 2.4 nM

Q: For O=c1c2cc(Cl)ccc2nc(/C=C/c2ccccc2)n1-c1ncccn1, which IC50 (Tubulin) is on record?
A: 5980 nM

Q: What about the IC50 (MCF7 [6]) of the same molecule?
A: 310 nM

Q: And the inhibition at 10 µM (CA46)?
A: 66%

Q: And the inhibition at 10 µM (MCF7 [7])?
A: 20%

Q: Which pD2 (Oryctolagus cuniculus) does the source give for CC(=O)OC1C([N+](=O)[O-])c2ccc(Cl)cc2C(=O)N1[N+](=O)[O-] (stereo not given) here?
A: 5.4

Q: With O=c1[nH]cc(F)c(=O)[nH]1 [FLUOROURACIL] as the molecule, how does the GI50 (UO-31) read?
A: 6760 nM

Q: What about the GI50 (RXF 393) of the same molecule?
A: 55000 nM

Q: What about the GI50 [8] of the same molecule?
A: 42700 nM

Q: And the GI50 (SR)?
A: 1620 nM

Q: What about the GI50 (K562 [9]) of the same molecule?
A: 407 nM

Q: What about the GI50 (MOLT-4) of the same molecule?
A: 17000 nM

Q: What about the GI50 (A549) of the same molecule?
A: 1050 nM

Q: For Cc1nc2c(c(=O)n1CCN1CCC(C(=O)c3ccc(F)cc3)CC1)CCCC2, which Ki [10] is on record?
A: 2.63 nM

Q: Which results are given for CCCCc1nc2ccc(C(C)C)cc2c(=O)n1Cc1ccc(-c2ccccc2S(=O)(=O)NC(=O)C2CC2)cc1?
A: ED50 (Rattus norvegicus [11]): 0.68 mg/kg; ED50 (Rattus norvegicus [12]): 0.25 mg/kg

Q: What does the source list for Cc1ccccc1-n1c(C)nc2ccccc2c1=O [METHAQUALONE]?
A: Activity (Mus musculus [13]): 20%; Time (Mus musculus [14]): 119.7 min; Time (Mus musculus [15]): 5.5 min

Q: What does the source list for Nc1nc2[nH]cnc2c(=S)[nH]1 [THIOGUANINE]?
A: GI50 (UO-31): 1480 nM; GI50 (RXF 393): 759 nM; GI50 [8]: 4900 nM; GI50 (SR): 1620 nM; GI50 (K562 [9]): 195 nM; GI50 (MOLT-4): 9120 nM; GI50 (A549): 3550 nM

Q: What does the source list for Cc1ccc2c(c1)/C(=N\NC(=O)CSc1nc3ccccc3c(=O)n1-c1ccccc1)C(=O)N2?
A: EC50 [16]: 68100 nM; IC50 [16]: > 100000 nM; Ratio IC50/EC50 [17]: >1.47; GI50 (UO-31): 209 nM; GI50 (RXF 393): 1660 nM; GI50 [8]: 209 nM

Q: With CCCCc1nc2ccc([C@H]3OC[C@H]4[C@@H]3ON3[C@@H]4CCC3(C)C)cc2c(=O)n1Cc1ccc(-c2ccccc2-c2nn[nH]n2)cc1 as the molecule, how does the Activity (Rattus norvegicus [18]) read?
A: 70 mmHg

Q: Which IC50 (Vaccinia virus [19]) does the source give for CCc1nc(-n2c(-c3ccccc3)nc3ccc(Br)cc3c2=O)nc(N)c1-c1ccc(Cl)cc1 here?
A: 0.424 µg/mL (≈ 0.796 µM)

Q: And the MIC (Vaccinia virus [20])?
A: 1.92 µg/mL (≈ 3.6 µM)

Q: Which results are given for CCCCC1C(=O)N(c2ccccc2)N(c2ccccc2)C1=O [PHENYLBUTAZONE]?
A: inhibition in vivo at 10 mg/kg (Mus musculus [21]): 25%; inhibition in vivo at 10 mg/kg (Mus musculus [22]): 11%; inhibition (INH) (Rattus norvegicus [23]): 38.9%

Q: With O=C(c1ccc(F)cc1)C1CCN(CCn2cnc3c(c2=O)CCCC3)CC1 as the molecule, how does the Ki [10] read?
A: 7.59 nM

Q: Which Activity (Mus musculus [24]) does the source give for CCn1c(SCC(=O)NN2C(=O)C(C)S/C2=N\c2ccccc2)nc2ccccc2c1=O (stereo not given) here?
A: 66%

Q: What about the Activity (Mus musculus [25]) of the same molecule?
A: 66%

Q: For COc1cccc(-c2nc(O)c3cc(OC)ccc3n2)c1, which EC50 (Ovarian carcinoma cell) is on record?
A: < 5 µg/mL

Q: What about the EC50 [26] of the same molecule?
A: < 5 µg/mL
